Consider 7 molecules from patent US20250170224A1, “METHODS AND COMPOSITIONS FOR TREATING MICROGLIAL DYSFUNCTION AND IMPROVING METABOLIC DYSFUNCTION” (Ultimate Medicine AG, priority 2021, published 2025).

For series [1] the following is noted: healthy subjects; ingested lactulose 5 grams, mannitol 1 gram; cited from earlier work.
For series [2], the system named is gut barrier / microglia. Description: Aged SPF mice (18 months old) treated orally every third day for 10 weeks with EA or IAP. The series is classed as in vivo, mouse (C57BL/6). The following applies: for ATP levels in microglia / cellular ROS in microglia (CellROX): compared to vehicle-treated aged mice; for CML accumulation in the brain (LC-MS) / gut permeability (FITC-dextran 4 kDa translocation to the circulation): oral, every 3 days for 10 weeks. As for the experimental part: (§1) Specific pathogen-free (SPF) and germ-free (GF) housed C57BL/6 mice were analyzed at 6-10 weeks of age (young-adult) and 96-104 weeks of age (aged). Mice of the aged group in the nontargeted metabolomics analysis were 17-18 months old. Except for nontargeted metabolomics and microbiota profiling, where only male mice were used, all groups included mice from both sexes. Mice were housed under a 12-hour light/12-hour dark cycle and temperatures of 18-23° C. with 40-60% humidity, with food and water given ad libitum. To avoid cage effects, mice from at least three different cages per experimental group were analyzed. For the treatment, young-adult mice (8 weeks old) were injected intraperitoneally or by oral gavage with CML (0.735 mg kg^−1; Iris Biotech), trimethylamine N-oxide (TMAO) (3.95 mg kg^−1; Sigma-Aldrich), sodium acetate (59 mg kg^−1; Sigma-Aldrich) and sodium propionate (4.61 mg kg^−1; Sigma-Aldrich) daily for 14 days. For modulation of CML in aged animals, 18-month-old SPF housed C57BL/6 mice were treated orally every third day for 10 weeks with vehicle (20% hydroxypropyl-p-cyclodextrin in 1× phosphate-buffered saline (PBS)), 10 mg kg^−1 ellagic acid (EA) or 3,000 U kg^−1 intestinal alkaline phosphatase (IAP). To assess in vivo intestinal permeability, tracer fluorescein isothiocyanate (FITC)-labeled dextran (4 kDa: Sigma-Aldrich) was used. Briefly, mice were deprived of food 4 hours before and both food and water 4 hours after oral gavage using 200 μl of 80 mg ml^−1 FITC-dextran. Blood was collected retro-orbitally after 4 hours and fluorescence intensity was measured on fluorescence plates using an excitation wavelength of 493 nm and an emission wavelength of 518 nm. To assess in vivo intestinal permeability to CML, mice were treated with […] CML (0.36 mM). Blood was collected retro-orbitally immediately before and 4 hours after treatment. CML translocated into the circulation was measured by liquid chromatography-mass spectrometry (LC-MS). All animal experiments were approved by the local administration in Germany (Regierungsprasidium Freiburg) and were performed in accordance with the respective national, federal, and institutional regulations and the guidelines of the Federation of European Laboratory Animal Science Associations.
Cell sorting for RT-qPCR and RNA sequencing (RNA-seq) was performed on a MoFlo Astrios (Beckman Coulter; FIG. 7a). Before surface staining, dead cells were excluded by using the Fixable Viability Dye eFluor 780 (1:1,000 dilution; Thermo Fisher Scientific) followed by incubation with Fc receptor blocking antibody CD16/CD32 (1:200 dilution, clone 2.4G2; BD Bioscience). The following antibodies were used for surface staining: anti-CD45 (1:200 dilution, clone 30-F11; Thermo Fisher Scientific); anti-CD11b (1:200 dilution, clone MI/70; Thermo Fisher Scientific). The following lineage antibodies were used (all at 1:300 dilution): anti-CD3 (clone 17A2; BioLegend); anti-CD19 (clone 6D5; BioLegend); anti-CD45R (clone RA3-6B2; BD Biosciences); Ly6C (clone AL-21; BD Biosciences); Ly6G (clone 1A8; BD Biosciences). To assess microglial cellular reactive oxidative species (ROS), the CellROX DeepRed Reagent ([…]; Thermo Fisher Scientific) was used. To assess mitochondrial activity, Tetramethylrhodamine, Methyl Ester, Perchlorate (50 nM; Thermo Fisher Scientific) and MitoTracker Green FM (20 nM; Thermo Fisher Scientific) were used. Dead cells were excluded by short incubation with DAPI before flow cytometry analysis with the FACSCanto II (BD Biosciences). Data were acquired with the FACSDiva v.6 software (Becton Dickinson). Postacquisition analysis was performed with FlowJo v.10 (FlowJo LLC).
To avoid the cellular stress of fluorescence-activated cell sorting (FACS), microglial cells were isolated using the magnetic-activated cell sorting (MACS) separation system (Miltenyi Biotec; FIG. 7b). […]

Series [3] deals with microglia. The series is classed as in vivo. To be noted: young-adult mice, i.p. once per day for two weeks; for intracellular ROS production / oxidative stress in microglia: CellROX. As for the experimental part:
as §1, with “Mice” for “Specific pathogen-free (SPF) and germ-free (GF) housed C57BL/6 mice were analyzed at 6-10 weeks of age (young-adult) and 96-104 weeks of age (aged). Mice”, “For the treatment, young-adult mice (8 weeks old) were injected intraperitoneally or by oral gavage with CML (0.735 mg kg^−1; Iris Biotech), trimethylamine N-oxide (TMAO) (3.95 mg kg^−1; Sigma-Aldrich), sodium acetate (59 mg kg^−1; Sigma-Aldrich) and sodium propionate (4.61 mg kg^−1; Sigma-Aldrich) daily for 14 days.” left out
Mice were lethally anesthetized with ketamine (100 mg kg^−1 body weight) and xylazine (10 mg kg^−1 body weight) followed by perfusion with 1×PBS through the left heart chamber. For histology, brains were kept overnight in 4% paraformaldehyde (PFA). For flow cytometry and magnetic-activated cell sorting (MACS) beads cell sorting, brains were dissected, homogenized and filtered through a […] mesh. […] Myelin was removed from the top layer and the cell pellet was washed once with 1×PBS followed by antibody staining.
Brain specimens from the cortex were first fixed overnight in 3% glutaraldehyde at 4° C., washed with Sorensen buffer, and then transferred to 1% osmium tetroxide for 2 hours at room temperature. Next, samples were dehydrated by a graded series of ethanol (30-100%) followed by 100% propylene oxide, resin/propylene oxide (1:2 (v/v)) and resin/propylene oxide (2:1 (v/v)). Samples were embedded in resin via polymerization for 24 hours at 75° C. Then, 700-nm semithin sections were cut and stained with 2% toluidine blue to define the region of interest for further preparation of 70 nm ultrathin sections using an ultramicrotome (Leica Reichert Ultracut S) after contrasting the sections with uranyl acetate and lead citrate (Leica Reichert Ultrastainer). To assess the mitochondrial phenotype in microglia, images were acquired with a ×7,900 or ×46,000 magnification using a CM100 electron microscope (Philips).
Cell sorting for RT-qPCR and RNA sequencing (RNA-seq) was performed on a MoFlo Astrios (Beckman Coulter; FIG. 7a). Before surface staining, dead cells were excluded by using the Fixable Viability Dye eFluor 780 (1:1,000 dilution; Thermo Fisher Scientific) followed by incubation with Fc receptor blocking antibody CD16/CD32 (1:200 dilution, clone 2.4G2; BD Bioscience). […] To assess microglial cellular reactive oxidative species (ROS), the CellROX DeepRed Reagent ([…]; Thermo Fisher Scientific) was used. To assess mitochondrial activity, Tetramethylrhodamine, Methyl Ester, Perchlorate (50 nM; Thermo Fisher Scientific) and MitoTracker Green FM (20 nM; Thermo Fisher Scientific) were used.

`OC[C@H]1O[C@@H](O[C@@H]2[C@@H](CO)OC(O)(CO)[C@H]2O)[C@H](O)[C@@H](O)[C@H]1O` (mixture of isomers) [lactulose]: the “normal value of excretion in urine (percentage of ingested amount)” value in series [1] is listed as “about 0.35%”.

On to `O=c1oc2c(O)c(O)cc3c(=O)oc4c(O)c(O)cc1c4c23` [EA, ellagic acid], for which, in series [2], the “ATP levels in microglia” value was “increased ATP levels”, the “cellular ROS in microglia (CellROX)” value is given as “significant reduction”, the “CML accumulation in the brain (LC-MS)” value is “reduced” and the “gut permeability (FITC-dextran 4 kDa translocation to the circulation)” value is given as “no direct effect”.

In the case of `C[N+](C)(C)[O-]` [TMAO, trimethylamine N-oxide], in series [3], the “metabolic function (metabolic/mitochondrial activity) of microglia” value is reported as “no effect” and the “intracellular ROS production / oxidative stress in microglia” value is given as “no effect”.

Regarding `OC[C@@H](O)[C@@H](O)[C@H](O)[C@H](O)CO` [mannitol], in series [1], the “normal value of excretion in urine (percentage of ingested amount)” value was approximately 12.3%.

In the case of `CC(=O)[O-].[Na+]` [sodium acetate], in series [3], the “metabolic function (metabolic/mitochondrial activity) of microglia” value was “no effect” and the “intracellular ROS production / oxidative stress in microglia” value was “no effect”.

Turning to `CCC(=O)[O-].[Na+]` [sodium propionate], in series [3], the “metabolic function (metabolic/mitochondrial activity) of microglia” value is on record as “no effect” and the “intracellular ROS production / oxidative stress in microglia” value is “no effect”.

B1: IAP: intestinal alkaline phosphatase, an endogenous enhancer of the gut barrier function (exemplary CAS No. 9001-78-9 (calf)) (protein, UniProt P19111 20-506, looked up)
Intestinal-type alkaline …: LVPVEEEDPAFWNRQAAQALDVAKKLQPIQTAAKNVILFLGDGMGVPTVTATRILKGQMNGKLGPETPLAMDQFPYVALSKTYNVDRQVPDSAGTATAYLCGVKGNYRTIGVSAAARYNQCKTTRGNEVTSVMNRAKKAGKSVGVVTTTRVQHASPAGAYAHTVNRNWYSDADLPADAQMNGCQDIAAQLVNNMDIDVILGGGRKYMFPVGTPDPEYPDDASVNGVRKRKQNLVQAWQAKHQGAQYVWNRTALLQAADDSSVTHLMGLFEPADMKYNVQQDHTKDPTLQEMTEVALRVVSRNPRGFYLFVEGGRIDHGHHDDKAYMALTEAGMFDNAIAKANELTSELDTLILVTADHSHVFSFGGYTLRGTSIFGLAPSKALDSKSYTSILYGNGPGYALGGGSRPDVNDSTSEDPSYQQQAAVPQASETHGGEDVAVFARGPQAHLVHGVEEETFVAHIMAFAGCVEPYTDCNLPAPTTATSIPD
Take B1: in series [2], the “ATP levels in microglia” value is “increased ATP levels”, the “cellular ROS in microglia (CellROX)” value is given as “significant reduction”, the “CML accumulation in the brain (LC-MS)” value is “reduced” and the “gut permeability (FITC-dextran 4 kDa translocation to the circulation)” value was “lower gut leakiness”.
